The first experiment addresses T1, human mGluR2 receptor (Homo sapiens, UniProt Q14416).
T1 construct: expressed in transfected cells; host or cells: CHO cells
Briefly: [35S]GTPγS binding assay, positive allosteric modulation (GTPγS-PAM) in presence of EC20 glutamate. It is filed as biochemical. The settings on record: in presence of glutamate at EC20; average pEC50 if more experiments; ‡ means tested once. How it is done:
[^35S]GTPγS Binding Assay
The [^35S]GTPγS binding assay is a functional membrane-based assay used to study G-protein coupled receptor (GPCR) function whereby incorporation of a non-hydrolysable form of GTP, [^35S]GTPγS (guanosine 5′-triphosphate, labelled with […] ^35S), is measured. The G-protein α subunit catalyzes the exchange of guanosine 5′-diphosphate (GDP) by guanosine triphosphate (GTP) and on activation of the GPCR by an agonist, [^35S]GTPγS, becomes incorporated and cannot be cleaved to continue the exchange cycle (Harper (1998) Current Protocols in Pharmacology 2.6.1-10, John Wiley & Sons, Inc.). […] Here we describe the use of the [^35S]GTPγS binding assay using membranes from cells transfected with the human mGluR2 receptor and adapted from Schaffhauser et al. ((2003) Molecular Pharmacology 4:798-810) for the detection of the positive allosteric modulation (PAM) properties of the compounds of this invention.
CHO-cells were cultured to pre-confluence and stimulated with 5 mM butyrate for 24 h, prior to washing in PBS, and then collected by scraping in homogenisation buffer (50 mM Tris-HCl buffer, pH 7.4, 4° C.). Cell lysates were homogenized briefly using an ultra-turrax homogenizer. The homogenate was centrifuged at 16,000 RPM (Sorvall RC-5C plus rotor SS-34) for 10 minutes and the supernatant discarded. The pellet was resuspended in 5 mM Tris-HCl, pH 7.4 and centrifuged again (18,000 RPM, 20 min, 4° C.). The final pellet was resuspended in 50 mM Tris-HCl, pH 7.4 and stored at −80° C. in appropriate aliquots before use. Protein concentration was determined by the Bradford method (Bio-Rad, USA) with bovine serum albumin as standard.
Measurement of mGluR2 positive allosteric modulatory activity of test compounds was performed as follows. Test compounds and glutamate were diluted in assay buffer containing 10 mM HEPES acid, 10 mM HEPES salt, pH 7.4, 100 mM NaCl, 3 mM MgCl2 and 10 μM GDP. Human mGlu2 receptor-containing membranes were thawed on ice and diluted in assay buffer supplemented with 14 μg/ml saponin. Membranes were pre-incubated with compound alone or together with a predefined (˜EC20) concentration of glutamate (PAM assay) for 30 min at 30° C. After addition of [^35S]GTPγS (f.c. 0.1 nM) microplates were shaken briefly and further incubated to allow [^35S]GTPγS incorporation on activation (30 minutes, 30° C.). Final assay mixtures contained 7 μg of membrane protein in 10 mM HEPES acid, 10 mM HEPES salt, pH 7.4, 100 mM NaCl, 3 mM MgCl2, 10 µM GDP and 10 μg/ml saponin. Total reaction volume was 200 μl. Reactions were terminated by rapid filtration through Unifilter-96 GF/B filter plates (Packard, Meriden, Conn.) using a 96-well Packard filtermate harvester. Filters were washed 6 times with ice-cold 10 mM NaH2PO4/10 mM Na2HPO4, pH 7.4. Filters were then air-dried, and 40 μl of liquid scintillation cocktail (Microscint-O) was added to each well. Membrane-bound radioactivity was counted in a Microplate Scintillation and Luminescence Counter from Packard.
The concentration-response curves of representative compounds of the present invention-obtained in the presence of EC20 of mGluR2 agonist glutamate to determine positive allosteric modulation (PAM)—were generated using the Lexis software interface (developed at J&J).
In general terms: GTPγS is a poorly hydrolysed GTP analogue; its binding reports G protein activation.
T1 sequence (Q14416 19-872): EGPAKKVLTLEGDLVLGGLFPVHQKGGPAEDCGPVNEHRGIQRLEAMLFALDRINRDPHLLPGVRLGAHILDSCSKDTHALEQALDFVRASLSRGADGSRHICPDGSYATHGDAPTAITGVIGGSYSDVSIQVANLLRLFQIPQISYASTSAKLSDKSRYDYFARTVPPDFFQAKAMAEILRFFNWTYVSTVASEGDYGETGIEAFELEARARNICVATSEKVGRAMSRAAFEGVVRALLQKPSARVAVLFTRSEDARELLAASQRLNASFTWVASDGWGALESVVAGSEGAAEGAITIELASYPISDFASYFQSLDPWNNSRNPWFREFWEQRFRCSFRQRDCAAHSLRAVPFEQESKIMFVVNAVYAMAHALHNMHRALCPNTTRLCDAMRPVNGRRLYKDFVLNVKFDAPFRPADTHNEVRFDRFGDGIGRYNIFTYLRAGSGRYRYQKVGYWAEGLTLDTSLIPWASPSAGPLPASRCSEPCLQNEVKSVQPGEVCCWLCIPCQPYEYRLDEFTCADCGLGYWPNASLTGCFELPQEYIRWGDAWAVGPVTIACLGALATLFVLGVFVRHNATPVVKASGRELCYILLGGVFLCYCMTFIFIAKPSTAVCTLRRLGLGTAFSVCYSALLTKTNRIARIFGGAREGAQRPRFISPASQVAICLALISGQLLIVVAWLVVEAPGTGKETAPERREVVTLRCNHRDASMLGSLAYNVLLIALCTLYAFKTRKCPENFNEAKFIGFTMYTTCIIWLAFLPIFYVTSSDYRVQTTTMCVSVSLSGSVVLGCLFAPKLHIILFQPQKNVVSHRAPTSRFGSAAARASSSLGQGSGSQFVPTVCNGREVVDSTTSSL
`Fc1ccc(NC2CCN(c3ccn4c(CC5CC5)nnc4c3C(F)(F)F)CC2)c(F)c1` [compound 203]: the “GTPγS - hR2 PAM pEC50” value is 6.73.

Turning to `FC(F)(F)c1cc(CN2CCN(c3ccn4c(CC5CC5)nnc4c3Cl)CC2)cc(C(F)(F)F)c1` [compound 304], the “GTPγS - hR2 PAM pEC50” value came to 6.12.

Regarding `CC1CN(c2ccn3c(CC4CC4)nnc3c2C(F)(F)F)CCC1c1ccccc1` (stereo not drawn) [compound 169], the “GTPγS - hR2 PAM pEC50” value was 7.77‡.

As to `N#Cc1c(N2CCN(Cc3cccc(C(F)(F)F)c3)CC2)ccn2c(CC(F)(F)F)nnc12` [compound 60], the “GTPγS - hR2 PAM pEC50” value amounted to 6.33.

In the case of `Fc1cc(F)cc(CN2CCN(c3ccn4c(CC5CC5)nnc4c3Cl)CC2)c1` [compound 179], the “GTPγS - hR2 PAM pEC50” value is recorded as 5.79‡.

Consider `FC(F)(F)c1c(N2CCC(c3ccccc3)C2)ccn2c(CC3CC3)nnc12` (stereo not drawn) [compound 174], for which the “GTPγS - hR2 PAM pEC50” value is on record as 5.91‡.

Take `N#Cc1c(N2CCC(c3ccccc3)CC2)ccn2c(C3(C(F)(F)F)CC3)nnc12` [compound 31]: the “GTPγS - hR2 PAM pEC50” value is 6.27.

As for `Cc1cccnc1OC1CCN(c2ccn3c(CC4CC4)nnc3c2C(F)(F)F)CC1` [compound 68], the “GTPγS - hR2 PAM pEC50” value was 7.55.

As to `FC(F)(F)c1c(N2CC[C@H](Oc3ccccc3)C2)ccn2c(CC3CC3)nnc12` [compound 152], the “GTPγS - hR2 PAM pEC50” value is recorded as 6.78.

Turning to `CC(F)(F)c1nnc2c(C#N)c(N3CCC(c4ccccc4)CC3)ccn12` [compound 33], the “GTPγS - hR2 PAM pEC50” value is 5.15‡.

`CCCCc1nnc2c(C(F)(F)F)c(N3CCC(c4ccccc4)CC3)ccn12` [compound 4, 3-Butyl-7-(4-phenyl-1-piperidinyl)-8-trifluoromethyl-1,2,4-triazolo[4,3-a]pyridine]: the “GTPγS - hR2 PAM pEC50” value is reported as 7.62.

As to `FC1(F)CCN(C2CCN(c3ccn4c(CC5CC5)nnc4c3Cl)CC2)CC1` [compound 242], the “GTPγS - hR2 PAM pEC50” value was 5.86.

Regarding `CC1(c2cccc(F)c2)CCN(c2ccn3c(CC4CC4)nnc3c2C(F)(F)F)CC1` [compound 197], the “GTPγS - hR2 PAM pEC50” value was 7.82‡.

As to `CCc1nnc2c(C)c(N3CC4C(C3)C4c3ccccc3)ccn12` (racemic) [compound 335], the “GTPγS - hR2 PAM pEC50” value was 6.42‡.

As to `Fc1cccc2c1COC21CCN(c2ccn3c(CC4CC4)nnc3c2C(F)(F)F)CC1` [compound 109], the “GTPγS - hR2 PAM pEC50” value turned out to be 7.29.

For `Clc1c(N2CCN(c3ccccc3)CC2)ccn2c(CC3CC3)nnc12` [compound 99], the “GTPγS - hR2 PAM pEC50” value is 6.03.

For `CCOCc1nnc2c(Cl)c(N3CCC(c4c(OC)ccc(F)c4F)CC3)ccn12` [compound 84], the “GTPγS - hR2 PAM pEC50” value was found to be 7.86.

For `CC1CN(c2ccn3c(CC4CC4)nnc3c2Cl)CCC1c1ccccc1` (stereo not drawn) [compound 168], the “GTPγS - hR2 PAM pEC50” value worked out at 7.22.

For `FC(F)(F)c1c(N2CC(c3ccccc3)C2)ccn2c(CC3CC3)nnc12` [compound 137], the “GTPγS - hR2 PAM pEC50” value turned out to be 6.87.

Turning to `Fc1ccccc1NC1CCN(c2ccn3c(CC4CC4)nnc3c2C(F)(F)F)CC1` [compound 183], the “GTPγS - hR2 PAM pEC50” value is given as 7.08.

Turning to `N#Cc1c(N2CCN(C3CCC(C(F)(F)F)CC3)CC2)ccn2c(CC(F)(F)F)nnc12` (stereo not drawn) [compound 58], the “GTPγS - hR2 PAM pEC50” value is given as 6.23.

On to `FC(F)(F)c1c(N2CCC3(CC2)OCc2ccccc23)ccn2c(CC3CC3)nnc12` [compound 77], for which the “GTPγS - hR2 PAM pEC50” value is recorded as 7.68‡.

On to `CCCc1nnc2c(Cl)c(N3CCC4(CC3)OC(C)(C)c3ccccc34)ccn12` [compound 107], for which the “GTPγS - hR2 PAM pEC50” value is on record as 7.22.

On to `FC1(c2ccccc2)CCN(c2ccn3c(CCC4CC4)nnc3c2Cl)CC1` [compound 140], for which the “GTPγS - hR2 PAM pEC50” value was 6.55.

For `CCOCc1nnc2c(Cl)c(N3CCC(c4c(F)cc(F)cc4OC)CC3)ccn12` [compound 85], the “GTPγS - hR2 PAM pEC50” value was determined as 8.06.

For the compound `Fc1ccc(CN2CCN(c3ccn4c(CC5CC5)nnc4c3Cl)CC2)c(F)c1` [compound 215], the “GTPγS - hR2 PAM pEC50” value is recorded as 5.6‡.

Regarding `CC(C)Cc1nnc2c(C#N)c(N3CCC(c4ccccc4)CC3)ccn12` [compound 74], the “GTPγS - hR2 PAM pEC50” value came to 6.85.

In the case of `Clc1c(N2CCN(c3coc4ccccc34)CC2)ccn2c(CC3CC3)nnc12` [compound 157], the “GTPγS - hR2 PAM pEC50” value was found to be 6.18.

Turning to `Fc1ccccc1NC1CN(c2ccn3c(CC4CC4)nnc3c2C(F)(F)F)C1` [compound 189], the “GTPγS - hR2 PAM pEC50” value stood at 6.4.

Turning to `FC(F)(F)c1c(N2CCC(F)(c3ccccc3)CC2)ccn2c(CC3CC3)nnc12` [compound 2, 3-Cyclopropylmethyl-7-(4-fluoro-4-phenyl-1-piperidinyl)-8-(trifluoromethyl)-1,2,4-triazolo[4,3-a]pyridine], the “GTPγS - hR2 PAM pEC50” value is 7.41.

Take `CCOCc1nnc2c(Cl)c(N3CCC(c4cc(F)ccc4OC)CC3)ccn12` [compound 83]: the “GTPγS - hR2 PAM pEC50” value was determined as 7.64.

On to `Fc1ccc(CN2CCCC3(C2)CN(c2ccn4c(CC5CC5)nnc4c2C(F)(F)F)C3)c(F)c1` [compound 232], for which the “GTPγS - hR2 PAM pEC50” value is on record as 7.64.

In the case of `COc1cccc(F)c1C1CCN(c2ccn3c(CC4CC4)nnc3c2Cl)CC1` [compound 55], the “GTPγS - hR2 PAM pEC50” value is 8.22.

For `FC(F)(F)Cc1nnc2c(Cl)c(N3CCC(Oc4ccccn4)CC3)ccn12` [compound 114], the “GTPγS - hR2 PAM pEC50” value is given as 6.33.

In the case of `COc1cc(F)ccc1C1CCN(c2ccn3c(CC4CC4)nnc3c2C(F)(F)F)CC1` [compound 277], the “GTPγS - hR2 PAM pEC50” value is 7.72.

As for `CCCc1nnc2c(Cl)c(N3CCC4(CC3)COc3ccccc34)ccn12` [compound 88], the “GTPγS - hR2 PAM pEC50” value is listed as 6.18.

Turning to `Cl.Fc1cccc2c1COC21CCN(c2ccn3c(CC4CC4)nnc3c2Cl)CC1` [compound 108], the “GTPγS - hR2 PAM pEC50” value is given as 6.91‡.

For `CC1(C)CN(c2ccn3c(CC4CC4)nnc3c2C(F)(F)F)CCN1c1cc(F)cc(F)c1` [compound 233], the “GTPγS - hR2 PAM pEC50” value came out at 7.23.

In the case of `Fc1ccccc1NC1CCN(c2ccn3c(CC4CC4)nnc3c2Cl)CC1` [compound 176], the “GTPγS - hR2 PAM pEC50” value is listed as 6.3.

On to `FC(F)(F)c1c(N2CCC(NCc3ccccc3)CC2)ccn2c(CC3CC3)nnc12` [compound 230], for which the “GTPγS - hR2 PAM pEC50” value is reported as 5.61‡.

As to `CCOCc1nnc2c(C(F)(F)F)c(N3CCC(c4ccccc4)CC3)ccn12` [compound 136], the “GTPγS - hR2 PAM pEC50” value is on record as 7.69‡.

In the case of `Cc1cccnc1OC1CCN(c2ccn3c(CC4CC4)nnc3c2Cl)CC1` [compound 48], the “GTPγS - hR2 PAM pEC50” value is 6.9‡.

In the case of `CCCc1nnc2c(C(F)(F)F)c(N3CCC4(CC3)OCc3c(F)cccc34)ccn12` [compound 110], the “GTPγS - hR2 PAM pEC50” value is given as 6.86.

Turning to `CC1(c2ccccc2)CCN(c2ccn3c(CC4CC4)nnc3c2Cl)CC1` [compound 133], the “GTPγS - hR2 PAM pEC50” value is recorded as 7.05.

Consider `FC(F)(F)c1c(N2Cc3ccccc3C2)ccn2c(CC3CC3)nnc12` [compound 130], for which the “GTPγS - hR2 PAM pEC50” value was found to be 6.4.

The experiment is the same for the next values; noted with them: in presence of glutamate at EC20; average pEC50 if more experiments; ‡ means tested once; read-out: GTPγS - hR2 PAM pEC50 (converted).
Consider `CC1(C)OC2(CCN(c3ccn4c(CC5CC5)nnc4c3C(F)(F)F)CC2)c2ccc(F)cc21` [compound 200, 1′-[3-(Cyclopropylmethyl)-8-(trifluoromethyl)-1,2,4-triazolo[4,3-a]pyridin-7-yl]-5-fluoro-3,3-dimethyl-spiro[isobenzofuran-1(3H),4′-piperidine]], for which the EC50 was 3.55 nM.

On to `CC(C)Cc1nnc2c(Cl)c(N3CCC(c4ccccc4)CC3)ccn12` [compound 9, 8-Chloro-3-(2-methylpropyl)-7-(4-phenyl-1-piperidinyl)-1,2,4-triazolo[4,3-a]pyridine], for which the EC50 is 269 nM.

As to `N#Cc1c(N2CCC(c3ccccc3)CC2)ccn2c(CN3CCC(c4ccccc4)CC3)nnc12` [compound 12, 7-(4-phenyl-1-piperidinyl)-3-[(4-phenyl-1-piperidinyl)methyl]-1,2,4triazolo[4,3-a]pyridine-8-carbonitrile], the EC50 is 46.8 nM.

For the origin of these results see patent US10071095B2, “1,2,4-triazolo [4,3-A] pyridine derivatives and their use for the treatment of neurological and psychiatric disorders” (JANSSEN PHARMACEUTICALS, INC., priority 2009, dated 2018).
